Where a name gives a salt, the structure may show the parent alone. A value given as a limit tells only on which side of the number the result lay.

The target in this assay is T1, Human CXCR4 transfected HEK293 cells (Homo sapiens, UniProt P61073).
T1 construct: expressed in transfected cells; host or cells: HEK293
T1 sequence (P61073 whole entry): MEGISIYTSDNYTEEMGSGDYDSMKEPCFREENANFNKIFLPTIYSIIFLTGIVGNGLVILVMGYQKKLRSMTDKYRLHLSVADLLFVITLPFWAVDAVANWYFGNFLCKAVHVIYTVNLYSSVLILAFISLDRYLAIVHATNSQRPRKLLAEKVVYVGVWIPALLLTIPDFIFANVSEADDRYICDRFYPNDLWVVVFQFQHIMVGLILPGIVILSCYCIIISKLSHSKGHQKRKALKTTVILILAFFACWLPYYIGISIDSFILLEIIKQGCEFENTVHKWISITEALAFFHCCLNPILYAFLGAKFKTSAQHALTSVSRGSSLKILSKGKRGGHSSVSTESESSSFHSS
Kind of assay: CXCR4 functional calcium assay (calcium flux FLIPR, antagonism of SDF1 response). The following applies: CXCR4 functional activity, antagonism of SDF1 (EC50 concentration), read-out: CXCR4 fKi. Type of assay: cell-based. Put shortly: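 Dose-dependent antagonism of the SDF1 response was read by FLIPR as Fluo-4 calcium signal (2 μM dye) in CXCR4-expressing human HEK293 cells, in HBSS with probenecid, BSA and HEPES at pH 7.4 and 37° C. Test compound was given before an EC50-level SDF1 challenge. Curves were then fitted.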
In general terms: Calcium assays in cells follow changes in intracellular calcium, usually with a dye or a luminescent sensor.
Take `CCCCNC(=O)c1cccc(N2CCCN(C3CCN(Cc4ccccc4Cl)CC3)CC2)n1` [Example 138, N-Butyl-6-(4-{1-[(2-chlorophenyl)methyl]piperidin-4-yl}-1,4-diazepan-1-yl)pyridine-2-carboxamide]: the Ki is 500 to 1000 nM.

As for `O=C(NCCCn1ccnc1)c1cccc(N2CCCN(C3CCN(Cc4ccccc4Cl)CC3)CC2)n1` [Example 139, 6-(4-{1-[(2-Chlorophenyl)methyl]piperidin-4-yl}-1,4-diazepan-1-yl)-N-[3-(1H-imidazol-1-yl)propyl]pyridine-2-carboxamide], the Ki is 100 to 500 nM.

As for `CC(C)N1CCC(N2CCCN(c3cccc(-c4nc5ccccc5n4C)n3)CC2)CC1` [Example 140, 1-Methyl-2-(6-{4-[1-(propan-2-yl)piperidin-4-yl]-1,4-diazepan-1-yl}pyridin-2-yl)-1H-1,3-benzodiazole], the Ki lay in the range of 500 to 1000 nM.

Regarding `CC(C)N1CCC(N2CCCN(c3cccc(-c4nc5ccccc5[nH]4)n3)CC2)CC1` [Example 141, 2-(6-{4-[1-(Propan-2-yl)piperidin-4-yl]-1,4-diazepan-1-yl}pyridine-2-yl)-1H-1,3-benzodiazole], the Ki was less than 20 nM.

In the case of `CC(C)N1CCC(N2CCCN(c3cccc(-c4nc5cccc(F)c5[nH]4)n3)CC2)CC1` [Example 142, 7-Fluoro-2-(6-{4-[1-(propan-2-yl)piperidin-4-yl]-1,4-diazepan-1-yl}pyridine-2-yl)-1H-1,3-benzodiazole], the Ki was 20 to 100 nM.

With `Cc1cccc2nc(-c3cccc(N4CCCN(C5CCN(C(C)C)CC5)CC4)n3)[nH]c12` [Example 143, 7-Methyl-2-(6-{4-[1-(propan-2-yl)piperidin-4-yl]-1,4-diazepan-1-yl}pyridine-2-yl)-1H-1,3-benzodiazole], the Ki lay within 100 to 500 nM.

Turning to `CC(C)N1CCC(N2CCCN(c3cccc(-c4nc5ccc(C(F)(F)F)cc5[nH]4)n3)CC2)CC1` [Example 144, 2-(6-{4-[1-(Propan-2-yl)piperidin-4-yl]-1,4-diazepan-1-yl}pyridine-2-yl)-6-(trifluoromethyl)-1H-1,3-benzodiazole], the Ki was in the range of 100 to 500 nM.

For `CC(C)N1CCC(N2CCCN(c3cccc(-c4nc5cc(F)c(F)cc5[nH]4)n3)CC2)CC1` [Example 145, 5,6-Difluoro-2-(6-{4-[1-(propan-2-yl)piperidin-4-yl]-1,4-diazepan-1-yl}pyridine-2-yl)-1,3-benzodiazole], the Ki was less than 20 nM.

On to `Cc1cc2nc(-c3cccc(N4CCCN(C5CCN(C(C)C)CC5)CC4)n3)[nH]c2cc1C` [Example 146, 5,6-Dimethyl-2-(6-{4-[1-(propan-2-yl)piperidin-4-yl]-1,4-diazepan-1-yl}pyridine-2-yl)-1H-1,3-benzodiazole], for which the Ki fell in the range of 100 to 500 nM.

With `CC(C)N1CCC(N2CCCN(c3cccc(-c4nc5ccc(F)cc5[nH]4)n3)CC2)CC1` [Example 147, 6-Fluoro-2-(6-{4-[1-(propan-2-yl)piperidin-4-yl]-1,4-diazepan-1-yl}pyridine-2-yl)-1H-1,3-benzodiazole], the Ki was in the range of 20 to 100 nM.

Turning to `Cc1ccc2nc(-c3cccc(N4CCCN(C5CCN(C(C)C)CC5)CC4)n3)[nH]c2c1` [Example 148, 6-Methyl-2-(6-{4-[1-(propan-2-yl)piperidin-4-yl]-1,4-diazepan-1-yl}pyridine-2-yl)-1H-1,3-benzodiazole], the Ki lay in the range of 20 to 100 nM.

Consider `CC(C)N1CCC(N2CCCN(c3cccc(-c4nc5ccc(C#N)cc5[nH]4)n3)CC2)CC1` [Example 149, 2-(6-{4-[1-(Propan-2-yl)piperidin-4-yl]-1,4-diazepan-1-yl}pyridine-2-yl)-1H-1,3-benzodiazole-6-carbonitrile], for which the Ki was less than 20 nM.

On to `COc1ccc2nc(-c3cccc(N4CCCN(C5CCN(C(C)C)CC5)CC4)n3)[nH]c2c1` [Example 150, 6-Methoxy-2-(6-{4-[1-(propan-2-yl)piperidin-4-yl]-1,4-diazepan-1-yl}pyridine-2-yl)-1H-1,3-benzodiazole], for which the Ki lay in the range of 20 to 100 nM.

For `CC(C)N1CCC(N2CCCN(c3cccc(-c4nc5ccccc5s4)n3)CC2)CC1` [Example 151, 2-(6-{4-[1-(Propan-2-yl)piperidin-4-yl]-1,4-diazepan-1-yl}pyridine-2-yl)-1,3-benzothiazole], the Ki fell in the range of 100 to 500 nM.

Regarding `CC(C)N1CCC(N2CCCN(c3cccc(-c4nc5ccccc5o4)n3)CC2)CC1` [Example 152, 2-(6-{4-[1-(Propan-2-yl)piperidin-4-yl]-1,4-diazepan-1-yl}pyridine-2-yl)-1,3-benzoxazole], the Ki fell in the range of 100 to 500 nM.

Turning to `Cc1nc(-c2cccc(N3CCCN(C4CCN(C(C)C)CC4)CC3)n2)no1` [Example 153, 1-[6-(5-Methyl-1,2,4-oxadiazol-3-yl)pyridin-2-yl]-4-[1-(propan-2-yl)piperidin-4-yl]-1,4-diazepane], the Ki was in the range of 500 to 1000 nM.

As for `CCCc1nc(-c2cccc(N3CCCN(C4CCN([C@H](C)CC)CC4)CC3)n2)no1` [Example 154, 1-{1-[(2R)-Butan-2-yl]piperidin-4-yl}-4-[6-(5-propyl-1,2,4-oxadiazol-3-yl)pyridin-2-yl]-1,4-diazepane], the Ki was in the range of 100 to 500 nM.

Turning to `CCc1nc(-c2cccc(N3CCCN(C4CCN(C(C)C)CC4)CC3)n2)no1` [Example 155, 1-[6-(5-Ethyl-1,2,4-oxadiazol-3-yl)pyridine-2-yl]-4-[1-(propan-2-yl)piperidin-4-yl]-1,4-diazepane trihydrochloride], the Ki is 100 to 500 nM.

For the compound `CCCc1nc(-c2cccc(N3CCCN(C4CCN(C(C)C)CC4)CC3)n2)no1` [Example 156, 1-[1-(Propan-2-yl)piperidin-4-yl]-4-[6-(5-propyl-1,2,4-oxadiazol-3-yl)pyridine-2-yl]-1,4-diazepane], the Ki is 20 to 100 nM.

With `CCCCc1nc(-c2cccc(N3CCCN(C4CCN(C(C)C)CC4)CC3)n2)no1` [Example 157, 1-[6-(5-Butyl-1,2,4-oxadiazol-3-yl)pyridine-2-yl]-4-[1-(propan-2-yl)piperidin-4-yl]-1,4-diazepane], the Ki was in the range of 100 to 500 nM.

With `CC(C)c1nc(-c2cccc(N3CCCN(C4CCN(C(C)C)CC4)CC3)n2)no1` [Example 158, 1-{6-[5-(Propan-2-yl)-1,2,4-oxadiazol-3-yl]pyridine-2-yl}-4-[1-(propan-2-yl)piperidin-4-yl]-1,4-diazepane], the Ki was in the range of 500 to 1000 nM.

Consider `CC(C)N1CCC(N2CCCN(c3cccc(-c4noc(C(C)(C)C)n4)n3)CC2)CC1` [Example 159, 1-[6-(5-tert-Butyl-1,2,4-oxadiazol-3-yl)pyridine-2-yl]-4-[1-(propan-2-yl)piperidin-4-yl]-1,4-diazepane], for which the Ki was in the range of 500 to 1000 nM.

Consider `CC(C)N1CCC(N2CCCN(c3cccc(-c4noc(CC(C)(C)C)n4)n3)CC2)CC1` [Example 160, 1-{6-[5-(2,2-Dimethylpropyl)-1,2,4-oxadiazol-3-yl]pyridine-2-yl}-4-[1-(propan-2-yl)piperidin-4-yl]-1,4-diazepane], for which the Ki lay in the range of 100 to 500 nM.

For the compound `CC(C)N1CCC(N2CCCN(c3cccc(-c4noc(C5CC5)n4)n3)CC2)CC1` [Example 161, 1-[6-(5-Cyclopropyl-1,2,4-oxadiazol-3-yl)pyridine-2-yl]-4-[1-(propan-2-yl)piperidin-4-yl]-1,4-diazepane], the Ki lay in the range of 100 to 500 nM.

On to `CC(C)N1CCC(N2CCCN(c3cccc(-c4noc(C5CCCC5)n4)n3)CC2)CC1` [Example 162, 1-[6-(5-Cyclopentyl-1,2,4-oxadiazol-3-yl)pyridine-2-yl]-4-[1-(propan-2-yl)piperidin-4-yl]-1,4-diazepane], for which the Ki fell in the range of 100 to 500 nM.

In the case of `COCc1nc(-c2cccc(N3CCCN(C4CCN(C(C)C)CC4)CC3)n2)no1` [Example 163, 1-{6-[5-(Methoxymethyl)-1,2,4-oxadiazol-3-yl]pyridine-2-yl}-4-[1-(propan-2-yl)piperidin-4-yl]-1,4-diazepane], the Ki was 100 to 500 nM.

On to `CC(C)N1CCC(N2CCCN(c3cccc(-c4noc(-c5ccccc5)n4)n3)CC2)CC1` [Example 164, 1-[6-(5-Phenyl-1,2,4-oxadiazol-3-yl)pyridine-2-yl]-4-[1-(propan-2-yl)piperidin-4-yl]-1,4-diazepane], for which the Ki lay within 20 to 100 nM.

`CC(C)N1CCC(N2CCCN(c3cccc(-c4noc(-c5ccccn5)n4)n3)CC2)CC1` [Example 165, 1-[1-(Propan-2-yl)piperidin-4-yl]-4-{6-[5-(pyridine-2-yl)-1,2,4-oxadiazol-3-yl]pyridine-2-yl}-1,4-diazepane tetrahydrochloride]: the Ki fell in the range of 100 to 500 nM.

With `CC(C)N1CCC(N2CCCN(c3cccc(-c4noc(-c5cccnc5)n4)n3)CC2)CC1` [Example 166, 1-[1-(Propan-2-yl)piperidin-4-yl]-4-{6-[5-(pyridine-3-yl)-1,2,4-oxadiazol-3-yl]pyridine-2-yl}-1,4-diazepane tetrahydrochloride], the Ki is 100 to 500 nM.

Consider `CC(C)N1CCC(N2CCCN(c3cccc(-c4noc(-c5ccncc5)n4)n3)CC2)CC1` [Example 167, 1-[1-(Propan-2-yl)piperidin-4-yl]-4-{6-[5-(pyridine-4-yl)-1,2,4-oxadiazol-3-yl]pyridine-2-yl}-1,4-diazepane tetrahydrochloride], for which the Ki was in the range of 20 to 100 nM.

As to `CC(C)N1CCC(N2CCCN(c3cccc(-c4nnn(C)n4)n3)CC2)CC1` [Example 168, 1-[6-(2-Methyl-2H-1,2,3,4-tetrazol-5-yl)pyridin-2-yl]-4-[1-(propan-2-yl)piperidin-4-yl]-1,4-diazepane], the Ki lay in the range of 100 to 500 nM.

With `CC(C)N1CCC(N2CCCN(c3cccc(-c4nc(C5CC5)no4)n3)CC2)CC1` [Example 169, 1-[6-(3-Cyclopropyl-1,2,4-oxadiazol-5-yl)pyridin-2-yl]-4-[1-(propan-2-yl)piperidin-4-yl]-1,4-diazepane], the Ki was in the range of 500 to 1000 nM.

Consider `CC(C)N1CCC(N2CCCN(c3cccc(-c4nc(-c5ccccc5)no4)n3)CC2)CC1` [Example 170, 1-[6-(3-Phenyl-1,2,4-oxadiazol-5-yl)pyridin-2-yl]-4-[1-(propan-2-yl)piperidin-4-yl]-1,4-diazepane], for which the Ki lay in the range of 100 to 500 nM.

Values taken from patent US10995091B2 (Proximagen, LLC, priority 2010, dated 2021).
